Like-named read-outs stand apart in the source and are kept apart here. {(RXR)4XB} = cell-penetrating peptide (R arginine, X 6-aminohexanoic acid, B beta-alanine), conjugated via its C-terminal beta-alanine linked through a pip-PDA moiety; {TEG} = triethylene glycol end group (as defined in the publication); {Acetyl} = acetyl cap
How the values were obtained:
[1] = tested on: Acinetobacter spp. (~34 strains); assay: PPMO MIC (IC75) in panel of Acinetobacter strains, rich and minimal media; details: nutrient rich MHII media
Experimental: Bacteria. Bacterial strains were obtained through the clinical microbiology lab at UT Southwestern unless otherwise noted. Strains also included those purchased through ATCC, the E. coli Genetic Stock Center (Yale University), or received from collaborators. They included both genome-sequenced isolates as well as clinical isolates with varying levels of antibiotic resistance. Single colonies were grown aerobically to stationary phase (1-2 mLs at 37° C., 250 rpm) in Mueller Hinton cation-adjusted (MH II) broth (Becton-Dickinson Difco BBL, Franklin Lakes, N.J., USA). The OD600 was taken and a working stock of 5×10^5 was generated based on the individual strain's colony forming units (CFU)/mL/OD. Working stocks were diluted in 150 mM NaCl and plated on tryptic-soy agar w/5% sheep blood plate (Remel, Lenexa, Kans.) to verify the starting concentration. For minimal nutrient conditions, E. coli was incubated in MOPS minimal medium (Neidhart et al., J Bacteriol 119:736-747, 1974), and Acinetobacter was performed in AB minimal media (Agrobacterium minimal media) with 10 mM citrate (Clark, J Mol Biol 23:99-112, 1967).
Minimal Inhibitory Concentration Assays. […] Optical density (OD) of cultures was read in a microplate spectrophotometer at 595-600 nm. After 18-20 hours of aerobic growth (200-250 rpm) at 37° C., 100 μl cultures with an OD of <0.06 were scored as no growth. […]

[2] = tested on: E. coli SMS-3-5; assay: MIC of classical antibiotics with added PPMOs that target resistance genes; type: cell-based
From the text: FIGS. 15A-15B show the minimum inhibitory concentration (MIC) of classical antibiotics with added PPMOs that target resistance genes in E. coli SMS-3-5. (FIG. 15A) MIC of ampicillin with blaT-(RXR)4XB (PPMO#66). (FIG. 15B) MIC of chloramphemicol with cmlA-(RXR)4XB (PPMO#67). N=3.
Minimal Inhibitory Concentration Assays.
Modulating antibiotic resistance with PPMOs could be an alternative therapeutic strategy. As proof of concept, PPMOs were designed to target specific, non-essential antibiotic resistance genes. blaT is part of the TEM beta-lactamase family and is found in environmental strains of E. coli, like SMS-3-5.

[3] = tested on: A. baumannii AYE; assay: Transmission electron microscopy of PPMO-treated bacteria; type: cell-based; details: 40 μM
[4] = tested on: multi-drug-resistant strain of Acinetobacter baumannii (AYE); assay: MIC of colistin, meropenem, tobramycin with added PPMO (microdilution), synergy by isoboles; details: for MIC: Acinetobacter baumannii
Experimental: Minimal Inhibitory Concentration Assays. Minimal inhibitory concentration (MIC) assays were performed in Mueller Hinton II medium using the microdilution method as described by the Clinical and Laboratory Standards Institute (CLSI). Optical density (OD) of cultures was read in a microplate spectrophotometer at 595-600 nm. After 18-20 hours of aerobic growth (200-250 rpm) at 37° C., 100 μl cultures with an OD of <0.06 were scored as no growth.
Synergy Studies. MICs were performed with a PPMO and a classic antibiotic (as indicated) in a 96 well plate. The PPMO was diluted first horizontally down the plate and the classic antibiotic was diluted across the rows of the plate. Inhibition was determined by visual observation and OD600 (see Berenbaum et al., J Antimicrob Chemother 12:555-563, 1983; and Berenbaum, J Infect Dis 137:122-130, 1978). […] Synergy was quantified using the method of isoboles as described (see Tallarida, Genes Cancer. 2:1003-8, 2011): (Effective concentration of antibiotic/MIC of antibiotic)+(Effective concentration of PPMO/MIC of PPMO). Calculated values less than 1 indicated synergy.
The MIC of the antibiotics colistin, meropenem, and tobramycin was measured using the microdilution method of the Clinical Laboratory Standards Institute in a 96-well microtiter plate format. Multiple, identical dilution series of each antibiotic were included on each microtiter plate. In each dilution series of antibiotic, a fixed amount of PPMO was added. Each dilution series of antibiotic included a different concentration of PPMO.

[5] = tested on: A. baumannii AYE; assay: MIC of tobramycin with adeA PPMO in nutrient rich and minimal media; type: cell-based; details: for MIC of tobramycin with adeA PPMO: 8 μM adeA PPMO

PPMO#6: acpP PPMO ATATCGCTCAC; 5' (RXR)4XB, 3' acetyl (all phosphorodiamidate morpholino (PMO), 5' {(RXR)4XB}, 3' {Acetyl}; further chemistry not given here)
IC75 MIC [1]: 2 µM

PPMO#67: cml PPMO TCCTTCTGATT; 5' TEG, 3' (RXR)4XB (listed as DNA, chemistry not fully specified)
effect of increasing concentrations of cmlA PPMO on MIC of chloramphenicol ([2]; FIG. 15B): progressively decreases in a dose-dependent fashion

PPMO#7: acpP PPMO ATATCGCTCAC; 5' TEG, 3' (RXR)4XB (all phosphorodiamidate morpholino (PMO), 5' {TEG}, 3' {(RXR)4XB}; further chemistry not given here)
cell morphology by TEM ([3]; 6 hours of incubation, MHII media): cell wall disruption
earliest time at which cell wall disruption was seen ([3]; data not shown): 3 h
IC75 MIC [1]: 4 µM
MIC of colistin in the presence of PPMO ([4]; 2 μM of PPMO): 0.25 µg/mL
MIC of tobramycin in the presence of PPMO ([4]; 4 μM PPMO): 2 µg/mL
synergy (method of isoboles; values less than 1 indicate synergy), colistin + PPMO ([4]; colistin): 0.75
synergy (method of isoboles), meropenem + PPMO ([4]; meropenem): 0.75
synergy (method of isoboles), tobramycin + PPMO ([4]; tobramycin): 0.625

NC[C@H]1O[C@H](O[C@H]2[C@H](O)[C@@H](O[C@H]3O[C@H](CO)[C@@H](O)[C@H](N)[C@H]3O)[C@H](N)C[C@@H]2N)[C@H](N)C[C@@H]1O [tobramycin, reference compound]
MIC of tobramycin alone ([5]; AB Minimal Media): 64 µg/mL
MIC ([5]; Acinetobacter baumannii, MHII, read-out: MIC of tobramycin alone): 64 µg/mL
MIC ([4]; read-out: MIC of tobramycin): 64 µg/mL

PPMO#65: adeA PPMO ATACTGTCCAA; 5' TEG, 3' (RXR)4XB (listed as DNA, chemistry not fully specified)
MIC of tobramycin with adeA PPMO ([5]; MHII): 4 µg/mL
MIC of tobramycin with adeA PPMO ([5]; minimal media): 1 µg/mL

O=C(N[C@H](CO)[C@H](O)c1ccc([N+](=O)[O-])cc1)C(Cl)Cl [chloramphenicol, reference compound]
MIC ([2]; Escherichia coli, SMS35, chloramphenicol alone): > 512 µg/mL

C[C@@H](O)[C@H]1C(=O)N2C(C(=O)O)=C(S[C@@H]3CN[C@H](C(=O)N(C)C)C3)[C@H](C)[C@H]12 [meropenem, reference compound]
MIC ([4]; read-out: MIC of meropenem): 2 µg/mL

PPMO#66: blaT PPMO CTCTTCCTTTT; 5' TEG, 3' (RXR)4XB (listed as DNA, chemistry not fully specified)
effect of increasing concentrations of blaT PPMO on MIC of ampicillin ([2]; FIG. 15A): progressively decreased

colistin [reference compound]
MIC of colistin ([4]; without PPMO): 1 µg/mL

From patent US10391098B2, “Antisense antibacterial compounds and methods” (priority 2014, dated 2019)
